Test results from patent US20170276611A1, “CHALCOGENOPYRYLIUM DYES, COMPOSITIONS COMPRISING SAME, COMPOSITE NANOPARTICLES COMPRISING SAME, AND METHODS OF MAKING AND USING THE SAME” (The Research Foundation for The State University of New York, priority 2014, published 2017).

Columns and labels:
Format in all cases: physicochemical
[1] = UV/VIS-near-IR absorption of the dyes; details: for ε (CH2Cl2): molar extinction coefficient in CH2Cl2
Procedure: Synthetic Methods. All reactions were performed open to air unless otherwise noted. Concentration in vacuo was performed on a rotary evaporator. NMR spectra were recorded at 300 or 500 MHz for ^1H and at 75.5 MHz for ^13C with residual solvent signal as internal standard. UV/VIS-near-IR spectra were recorded in quartz cuvettes with a 1-cm path length. Melting points were determined with a capillary melting point apparatus and are uncorrected. […] Pyranones 16b-16d are known compounds (J. Heterocycl. Chem. 1999, 36, 707-717). The synthesis of thiopyranone 16a and 4-methylpyrylium salt 15c is shown in Scheme 2. 4-Methylpyrylium salts 15a, 15d, and 15e have been reported previously in the literature (J. Org. Chem. 1982, 47, 5235-5239; Organometallics 1988, 7, 1131-1147; Dyes Pigm. 2000, 45, 1-7).

[2] = Effect of counterion on colloidal stability of SERRS-nanoprobes; details: 10 μM dye
Procedure: Effect of counterion on colloidal stability and SERRS-signal. […] Since SERRS is highly dependent on these factors, we evaluated the effect of the counterion (Z^−) on the SERRS spectrum, intensity, and colloidal stability of the pyrylium-based SERRS-nanoprobes. We compared chloride (Cl^−), bromide (Br^−), perchlorate (ClO4^−), and hexafluorophosphate (PF6^−) as counterions for chalcogenopyrylium dye 1a. The SERRS-nanoprobes were synthesized in the presence of equimolar amounts (10 μM) of CP dye 1a.Z^− (where Z^−═Cl^−, Br^−, ClO4^−, or PF6^−). The counterion introduces almost no difference in optical properties (e.g. absorption maxima, extinction coefficient). Furthermore, with the exception of the chloride counter-ion, the Raman shifts and intensity of 1a were minimally affected by the different counterions (FIG. 17 B). […] Since the PF6^− anion induced the least nanoparticle aggregation, it was used for further SERRS experiments.
SERRS-nanoprobe characterization. […] The size and concentration of the SERRS-nanoprobes were determined on a Nanoparticle Tracking Analyzer (NTA; Malvern Instruments, Malvern, UK). Absorption spectra to determine possible nanoparticle aggregation (typically detectable at wavelengths >600 nm) were measured on an M1000Pro spectrophotometer (Tecan Systems Inc. San Jose, Calif.). […]

[3] = Fluorescence of dyes incorporated in silica without gold nanoparticle; details: dye in silica without gold nanoparticle, excited at 785-nm, 50 μW/cm^2, 1.0 s
Text: Comparison of CP-dye 3 with a cyanine-based SERRS-reporter. In order to assess the quality of our optimized nanoprobe, thiopyrylium dye 3 and commercially available IR792 (FIG. 19 A), which has been previously used to generate surface-enhanced resonance Raman scattering nanoprobes, were studied. […] It is interesting to note that a fluorescence background is minimal in the SERRS spectra of the CP- and cyanine-based SERRS-nanoprobes. Whereas fluorescence interference would not be expected from chalcogenopyrylium dyes containing heavy chalcogens that enhance intersystem crossing, fluorescence interference could be expected for the cyanine dye IR792. […] This is due to quenching effects near the surface of the nanoparticle.

[4] = Table 2, Example 2 dyes, CH2Cl2

## C(=Cc1cc(-c2ccccc2)[se+]c(-c2ccccc2)c1)C=C1C=C(c2ccccc2)[Se]C(c2ccccc2)=C1.F[P-](F)(F)(F)(F)F [Dye 1a, 4-(3-(2,6-diphenyl-4H-selenopyran-4-ylidene)prop-1-enyl)-2,6-diphenylselenopyrylium hexafluorophosphate]
[1]; Table 2, Example 2 dyes
  Log (ε): 5.40
[1]; [4]
  λmax (CH2Cl2): 806 nm
[2]; counterion Cl^−
  colloidal stability of SERRS-nanoprobes: strongly destabilized the gold colloids and caused aggregation
[2]; counterion PF6^−
  colloidal stability of SERRS-nanoprobes: did not affect colloidal stability

## ClC1=C(/C=C/c2cc(-c3ccccc3)[s+]c(-c3ccccc3)c2)CCC/C1=C\C=C1C=C(c2ccccc2)SC(c2ccccc2)=C1 [Dye 20, 4-((E)-2-((E)-2-chloro-3-(2-(2,6-diphenyl-4H-thiopyran-4-ylidene)ethylidene)cyclohex-1-en-1-yl)vinyl)-2,6-diphenylthiopyrylium hexafluorophosphate]
[1]; absorption maximum in CH2Cl2
  λmax (CH2Cl2): 1042 nm
[1]
  ε (CH2Cl2): 100000 M⁻¹ cm⁻¹

## C(=C1C=C(c2ccccc2)SC(c2ccccc2)=C1)c1cc(-c2cccs2)[s+]c(-c2cccs2)c1.F[P-](F)(F)(F)(F)F [Dye 1]
[1]; absorption maximum in CH2Cl2
  λmax (CH2Cl2): 653 nm
[1]
  ε (CH2Cl2): 130000 M⁻¹ cm⁻¹

## CCCN1/C(=C\C=C2/CCCC(/C=C/C3=[N+](CCC)c4ccccc4C3(C)C)=C2Sc2ccccc2)C(C)(C)c2ccccc21 [IR792]
[3]
  fluorescence: strong fluorescence

## C(=Cc1cc(-c2ccccc2)[se+]c(-c2ccccc2)c1)C=C1C=C(c2ccccc2)SC(c2ccccc2)=C1.F[P-](F)(F)(F)(F)F [Dye 1b, 4-(3-(2,6-diphenyl-4H-thiopyran-4-ylidene)prop-1-enyl)-2,6-diphenylselenopyrylium hexafluorophosphate]
[1]; Table 2, Example 2 dyes
  Log (ε): 5.30
[1]; [4]
  λmax (CH2Cl2): 784 nm

## C(=C1C=C(c2cccs2)[Se]C(c2cccs2)=C1)c1cc(-c2cccs2)[se+]c(-c2cccs2)c1.F[P-](F)(F)(F)(F)F [Dye 6, 4-((2,6-di(thiophen-2-yl)-4H-selenopyran-4-ylidene)methyl)-2,6-di(thiophen-2-yl)selenopyrylium hexafluorophosphate]
[1]; absorption maximum in CH2Cl2
  λmax (CH2Cl2): 724 nm
[1]
  ε (CH2Cl2): 130000 M⁻¹ cm⁻¹

## ClC1=C(/C=C/c2cc(-c3cccs3)[s+]c(-c3cccs3)c2)CCC/C1=C\C=C1C=C(c2cccs2)SC(c2cccs2)=C1 [Dye 21, 4-((E)-2-((E)-2-chloro-3-(2-(2,6-di(thiophen-2-yl)-4H-thiopyran-4-ylidene)ethylidene)-cyclohex-1-en-1-yl)vinyl)-2,6-di(thiophen-2-yl)thiopyrylium hexafluorophosphate]
[1]; absorption maximum in CH2Cl2
  λmax (CH2Cl2): 1119 nm

## C1=C(/C=C/C=C2\C=C(c3ccccc3)[Se]c3ccccc32)C=C(c2ccccc2)[SH]=C1c1ccccc1 [Dye 16, 4-(3-(2,6-diphenyl-4H-thiopyran-4-ylidene)prop-1-enyl)-2-phenylselenobenzopyrylium hexafluorophosphate]
[1]; absorption maximum in CH2Cl2
  λmax (CH2Cl2): 748 nm
[1]
  ε (CH2Cl2): 61000 M⁻¹ cm⁻¹
